Patent US11987588B2, “Modulators of the beta-3 adrenergic receptor useful for the treatment or prevention of heart failure and disorders related thereto” (Arena Pharmaceuticals, Inc., priority 2017, dated 2024)
“Also recorded” adds a separate entry of the source.

Molecular target: Beta-3 Adrenergic Receptor (Homo sapiens (Human), UniProt P13945)
Assay: Homogeneous Time-Resolved Fluorescence (HTRF) cAMP antagonist assay, IC50 determination
Format: cell-based
Details: CHO-K1 cells stably expressing recombinant receptor, isoproterenol at EC90
Procedure, shortened: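 In this functional readout, recombinant CHO-K1 cells received compound, then isoproterenol at its EC90. After 1 h at room temperature, cAMP levels were determined by HTRF using an on-plate standard curve, and IC50 values were fitted.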

Sequence of Beta-3 Adrenergic Receptor (P13945 whole entry, species assumed): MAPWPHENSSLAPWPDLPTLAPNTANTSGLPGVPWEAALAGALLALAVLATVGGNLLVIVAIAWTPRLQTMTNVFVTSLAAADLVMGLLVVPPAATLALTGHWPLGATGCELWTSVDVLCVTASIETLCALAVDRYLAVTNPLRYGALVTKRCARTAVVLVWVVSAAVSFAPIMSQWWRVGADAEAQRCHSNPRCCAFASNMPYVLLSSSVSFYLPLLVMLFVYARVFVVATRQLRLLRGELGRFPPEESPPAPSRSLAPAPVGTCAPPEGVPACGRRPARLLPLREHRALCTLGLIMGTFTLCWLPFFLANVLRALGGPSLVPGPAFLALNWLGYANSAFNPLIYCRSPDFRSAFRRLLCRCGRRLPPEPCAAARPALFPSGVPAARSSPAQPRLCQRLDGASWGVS

| Compound | IC50 |
| --- | --- |
| CN(C)S(=O)(=O)c1cccc(OC[C@@H](O)CNC2COC3(CCN(S(=O)(=O)c4cccc(-c5ccc(OCC#N)cc5)c4)CC3)C2)c1 (stereo partly drawn) [Compound 276, 3-((2S)-3-(8-(4′-(cyanomethoxy)biphenyl-3-ylsulfonyl)-1-oxa-8-azaspiro[4.5]decan-3-ylamino)-2-hydroxypropoxy)-N,N-dimethylbenzenesulfonamide] | 200 nM |
| CNS(=O)(=O)c1cccc(OC[C@@H](O)CNC2COC3(CCN(S(=O)(=O)c4ccc5oncc5c4)CC3)C2)c1 (stereo partly drawn) [Compound 327, 3-((2S)-3-(8-(benzo[d]isoxazol-5-ylsulfonyl)-1-oxa-8-azaspiro[4.5]decan-3-ylamino)-2-hydroxypropoxy)-N-methylbenzenesulfonamide] | 92.1 nM |
| CNS(=O)(=O)c1cccc(OC[C@@H](O)CNC2COC3(CCN(S(=O)(=O)c4cccc(-c5ccc(CC(=O)O)cc5)c4)CC3)C2)c1 (stereo partly drawn) [Compound 87, 2-(3′-(3-((S)-2-hydroxy-3-(3-(N-methylsulfamoyl)phenoxy)propylamino)-1-oxa-8-azaspiro[4.5]decan-8-ylsulfonyl)biphenyl-4-yl)acetic acid] | 66.1 nM |
| CCNS(=O)(=O)c1cccc(OC[C@@H](O)CNC2COC3(CCN(S(=O)(=O)c4cccc(-c5cnn(CC)c5)c4)CC3)C2)c1 (stereo partly drawn) [Compound 209, N-ethyl-3-((2S)-3-(8-(3-(1-ethyl-1H-pyrazol-4-yl)phenylsulfonyl)-1-oxa-8-azaspiro[4.5]decan-3-ylamino)-2-hydroxypropoxy)benzenesulfonamide] | 41 nM |
| CNS(=O)(=O)c1cccc(OC[C@@H](O)CNC2COC3(CCN(S(=O)(=O)c4ccc5nc[nH]c5c4)CC3)C2)c1 (stereo partly drawn) [Compound 146, 3-((2S)-3-(8-(1H-benzo[d]imidazol-6-ylsulfonyl)-1-oxa-8-azaspiro[4.5]decan-3-ylamino)-2-hydroxypropoxy)-N-methylbenzenesulfonamide] | 36.2 nM |
| NS(=O)(=O)c1cccc(OC[C@@H](O)CN[C@H]2COC3(CCN(S(=O)(=O)c4c[nH]c5c(F)cccc5c4=O)CC3)C2)c1 [Compound 554, 3-((S)-3-((R)-8-(8-fluoro-4-oxo-1,4-dihydroquinolin-3-ylsulfonyl)-1-oxa-8-azaspiro[4.5]decan-3-ylamino)-2-hydroxypropoxy)benzenesulfonamide] | 34.6 nM |
| CNS(=O)(=O)c1cccc(OC[C@@H](O)CN[C@H]2COC3(CCN(c4ncccn4)CC3)C2)c1 [Compound 576, 3-((S)-2-hydroxy-3-((R)-8-(pyrimidin-2-yl)-1-oxa-8-azaspiro[4.5]decan-3-ylamino)propoxy)-N-methylbenzenesulfonamide] | 528 nM |
| CNS(=O)(=O)c1cccc(OC[C@@H](O)CN[C@H]2COC3(CCN(S(=O)(=O)c4cnc5c(c4)OCCN5C)CC3)C2)c1 [Compound 481, 3-((S)-2-hydroxy-3-((R)-8-(4-methyl-3,4-dihydro-2H-pyrido[3,2-b][1,4]oxazin-7-ylsulfonyl)-1-oxa-8-azaspiro[4.5]decan-3-ylamino)propoxy)-N-methylbenzenesulfonamide] | 31.1 nM |
| CN(C)S(=O)(=O)c1cccc(OC[C@@H](O)CNC2COC3(CCN(S(=O)(=O)c4cccc(-c5ccc(CC#N)cc5)c4)CC3)C2)c1 (stereo partly drawn) [Compound 277, 3-((2S)-3-(8-(4′-(cyanomethyl)biphenyl-3-ylsulfonyl)-1-oxa-8-azaspiro[4.5]decan-3-ylamino)-2-hydroxypropoxy)-N,N-dimethylbenzenesulfonamide] | 46.7 nM |
| CNS(=O)(=O)c1cccc(OC[C@@H](O)CNC2COC3(CCN(S(=O)(=O)c4ccc(F)cc4F)CC3)C2)c1 (stereo partly drawn) [Compound 134, 3-((2S)-3-(8-(2,4-difluorophenylsulfonyl)-1-oxa-8-azaspiro[4.5]decan-3-ylamino)-2-hydroxypropoxy)-N-methylbenzenesulfonamide] | 37.9 nM |
| CNS(=O)(=O)c1cccc(OC[C@@H](O)CNC2COC3(CCN(S(=O)(=O)c4ccoc4)CC3)C2)c1 (stereo partly drawn) [Compound 192, 3-((2S)-3-(8-(furan-3-ylsulfonyl)-1-oxa-8-azaspiro[4.5]decan-3-ylamino)-2-hydroxypropoxy)-N-methylbenzenesulfonamide] | 28.3 nM |
| CNS(=O)(=O)c1cccc(OC[C@@H](O)CNC2COC3(CCN(S(=O)(=O)c4cccc(-c5ccc(CN)nc5)c4)CC3)C2)c1 (stereo partly drawn) [Compound 387, 3-((2S)-3-(8-(3-(6-(aminomethyl)pyridin-3-yl)phenylsulfonyl)-1-oxa-8-azaspiro[4.5]decan-3-ylamino)-2-hydroxypropoxy)-N-methylbenzenesulfonamide] | 30.8 nM |

These reach a lower IC50. Values come first.

| IC50 | Compound |
| --- | --- |
| 24.2 nM | CCNS(=O)(=O)c1cccc(OC[C@@H](O)CNC2COC3(CCN(S(=O)(=O)c4ccc5c(c4)NC(=O)CO5)CC3)C2)c1 (stereo partly drawn) [Compound 228, N-ethyl-3-((2S)-2-hydroxy-3-(8-(3-oxo-3,4-dihydro-2H-benzo[b][1,4]oxazin-6-ylsulfonyl)-1-oxa-8-azaspiro[4.5]decan-3-ylamino)propoxy)benzenesulfonamide] |
| 23.8 nM | CNS(=O)(=O)c1cccc(OC[C@@H](O)CNC2COC3(CCN(S(=O)(=O)c4c(C)ccc5nonc45)CC3)C2)c1 (stereo partly drawn) [Compound 175, 3-((2S)-2-hydroxy-3-(8-(5-methylbenzo[c][1,2,5]oxadiazol-4-ylsulfonyl)-1-oxa-8-azaspiro[4.5]decan-3-ylamino)propoxy)-N-methylbenzenesulfonamide] |
| 23.5 nM | CCOc1ccc(S(=O)(=O)N2CCC3(CC2)CC(NC[C@H](O)COc2cccc(S(=O)(=O)NC)c2)CO3)cc1 (stereo partly drawn) [Compound 136, 3-((2S)-3-(8-(4-ethoxyphenylsulfonyl)-1-oxa-8-azaspiro[4.5]decan-3-ylamino)-2-hydroxypropoxy)-N-methylbenzenesulfonamide] |
| 21.1 nM | CN1CCOc2ccc(S(=O)(=O)N3CCC4(CC3)CC(NC[C@H](O)COc3cccc(S(=O)(=O)N(C)C)c3)CO4)cc21 (stereo partly drawn) [Compound 256, 3-((2S)-2-hydroxy-3-(8-(4-methyl-3,4-dihydro-2H-benzo[b][1,4]oxazin-6-ylsulfonyl)-1-oxa-8-azaspiro[4.5]decan-3-ylamino)propoxy)-N,N-dimethylbenzenesulfonamide] |
| 10.8 nM | CNS(=O)(=O)c1cccc(OC[C@@H](O)CNC2COC3(CCN(S(=O)(=O)c4cc(F)ccc4Cl)CC3)C2)c1 (stereo partly drawn) [Compound 202, 3-((2S)-3-(8-(2-chloro-5-fluorophenylsulfonyl)-1-oxa-8-azaspiro[4.5]decan-3-ylamino)-2-hydroxypropoxy)-N-methylbenzenesulfonamide] |
| 9.03 nM | CNS(=O)(=O)c1cccc(OC[C@@H](O)CN[C@H]2COC3(CCN(S(=O)(=O)c4cnc5c(Cl)cn(C)c5c4)CC3)C2)c1 [Compound 527, 3-((S)-3-((R)-8-(3-chloro-1-methyl-1H-pyrrolo[3,2-b]pyridin-6-ylsulfonyl)-1-oxa-8-azaspiro[4.5]decan-3-ylamino)-2-hydroxypropoxy)-N-methylbenzenesulfonamide] |
| 8.46 nM | CNS(=O)(=O)c1cccc(OC[C@@H](O)CN[C@H]2COC3(CCN(S(=O)(=O)c4cnc5cc[nH]c5c4)CC3)C2)c1 [Compound 505, 3-((S)-3-((R)-8-(1H-pyrrolo[3,2-b]pyridin-6-ylsulfonyl)-1-oxa-8-azaspiro[4.5]decan-3-ylamino)-2-hydroxypropoxy)-N-methylbenzenesulfonamide] |

Test system: chronic heart failure (CHF) rats
Assay: Chronic heart failure (CHF) rat model, attenuation of negative contractile effects of BRL 37344 on left ventricular pressure
Format: in vivo
Details: 10 min infusion at 3, 10, 30 mg/kg/hr, then bolus of BRL (3 μg/kg)
Experimental: Beta-3 adrenergic receptor antagonists can be evaluated for effects on cardiac contractility in chronic heart failure (CHF) rats. Beta-3 adrenergic receptor expression is weak in the normal rat heart and higher in the rat heart with CHF. Because beta-3 adrenergic receptor expression is higher in the rat heart with CHF, a compound of the present invention was evaluated for the ability to attenuate the negative contractile effects of the beta-3 adrenergic receptor agonist BRL 37344 (BRL) compared to baseline in this CHF rat model.
Myocardial infarction was induced in male Sprague-Dawley rats by performing left coronary descending artery ligation. […]
Heart failure was evaluated weekly following surgery by testing impaired left ventricular function by echocardiography. Left ventricle end-diastolic volume (LVEDV) and left ventricle end-systolic volume (LVESV) were measured for at least three consecutive cardiac cycles in long-axis view images. Ejection Fraction (EF %) was calculated using the following formula: EF %=(LVEDV-LVESV)/LVEDV. […]
A direct determination of left ventricular function was used for all rats to evaluate the effects of compounds on left ventricular contractility. […] Left ventricular pressure (LVP) was monitored by LabChart with POWERLAB® Data Acquisition System (ADInstruments, Sydney, Australia). […]

| Compound | left ventricular pressure (LVP) |
| --- | --- |
| CNS(=O)(=O)c1cccc(OC[C@@H](O)CN[C@H]2COC3(CCN(S(=O)(=O)c4cnc5cc[nH]c5c4)CC3)C2)c1 [Compound 505, 3-((S)-3-((R)-8-(1H-pyrrolo[3,2-b]pyridin-6-ylsulfonyl)-1-oxa-8-azaspiro[4.5]decan-3-ylamino)-2-hydroxypropoxy)-N-methylbenzenesulfonamide] | dose-dependent improvement; also recorded: inhibition of negative effects of BRL on left ventricular pressure (LVP) |
